Each structure is given as a SMILES string.

The target of the experiment is Histone deacetylase 2 (Homo sapiens, UniProt Q92769). Kind of experiment: Inhibition of full-length recombinant human C-terminal GST tagged HDAC2 expressed in Sf9 insect cells using aminoluciferin peptide substrate at 100 nM preincubated for 3 hrs followed by substrate addition and measured after 30 mins by HDAC-Glo I/II chemiluminescence assay. Conditions: time 3.5 hrs.
Chain of Histone deacetylase 2 (Q92769 whole entry): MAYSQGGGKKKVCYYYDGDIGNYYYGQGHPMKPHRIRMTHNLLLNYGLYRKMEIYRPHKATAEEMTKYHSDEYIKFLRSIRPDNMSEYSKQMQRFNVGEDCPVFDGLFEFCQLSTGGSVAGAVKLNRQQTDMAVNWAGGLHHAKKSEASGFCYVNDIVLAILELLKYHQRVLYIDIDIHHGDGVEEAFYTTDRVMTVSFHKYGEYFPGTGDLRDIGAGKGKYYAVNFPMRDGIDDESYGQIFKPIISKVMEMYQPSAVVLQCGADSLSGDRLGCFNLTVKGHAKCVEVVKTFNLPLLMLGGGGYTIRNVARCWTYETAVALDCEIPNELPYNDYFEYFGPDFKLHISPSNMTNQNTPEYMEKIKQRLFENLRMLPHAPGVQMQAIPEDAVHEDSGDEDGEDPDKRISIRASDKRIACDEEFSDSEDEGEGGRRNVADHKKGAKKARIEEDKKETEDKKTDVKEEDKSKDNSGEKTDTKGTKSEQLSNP
What is called inhibition is the relative decrease from the control value, in per cent. As to `Nc1ccc(-c2ccccc2)cc1NC(=O)c1cn(CCCCCc2ccccc2)nn1`, the inhibition came to 0%. To `Nc1ccc(-c2ccsc2)cc1NC(=O)c1cn(-c2cccc3ccccc23)nn1` belongs 0%; to `Nc1ccc(-c2cccs2)cc1NC(=O)c1ccc(-c2cn(CCc3cccc(F)c3)nn2)cc1`, 22%. For `Nc1ccc(-c2cccnc2)cc1NC(=O)CCc1cn(-c2ccccc2-c2ccccc2)nn1` the value was 9%; for `Nc1ccc(-c2cccs2)cc1NC(=O)c1cccc(-c2cn(CC34CC5CC(CC(C5)C3)C4)nn2)c1`, 0%; for `Nc1ccc(-c2cccs2)cc1NC(=O)c1ccc(-c2cn(CCC3CCCC3)nn2)cc1`, 0%. For `Nc1ccc(-c2ccc(F)cc2)cc1NC(=O)CCc1cn(CC(=O)Nc2ccc(F)cc2)nn1` the value was 16%. `Nc1ccc(-c2ccsc2)cc1NC(=O)c1cn(CCCCC(=O)O)nn1`: the inhibition was 0%. For `Nc1ccc(-c2cccs2)cc1NC(=O)c1cn(-c2ccccc2-c2ccccc2)nn1` the value was 0%; for `Nc1ccc(-c2cccs2)cc1NC(=O)CCc1cn(CCc2cccc([N+](=O)[O-])c2)nn1`, 27%. To `Nc1ccc(-c2cccnc2)cc1NC(=O)CCc1cn(CCc2cccc3ccccc23)nn1` belongs 13%; to `Nc1ccc(-c2ccccc2)cc1NC(=O)c1cn(-c2cccc3ccccc23)nn1`, 0%; to `Cc1csc(CCn2cc(CCC(=O)Nc3cc(-c4ccsc4)ccc3N)nn2)n1`, 39%. To `Cc1ccccc1CCn1cc(C(=O)Nc2cc(-c3cccs3)ccc2N)nn1` belongs 0%; to `Nc1ccc(-c2cccs2)cc1NC(=O)c1ccc(-c2cn(CCCCCCCC(=O)O)nn2)cc1`, 0%; to `Nc1ccc(-c2cccs2)cc1NC(=O)c1ccc(-c2cn(CCCCCc3ccccc3)nn2)s1`, 1%. For `Nc1ccc(-c2cccs2)cc1NC(=O)c1cn(CCCCCCC(=O)O)nn1`, the inhibition was found to be 7%. To `Nc1ccc(-c2cccs2)cc1NC(=O)c1cccc(-c2cn(CCN3CCc4ccccc4C3)nn2)c1` belongs 20%; to `Nc1ccc(-c2cccnc2)cc1NC(=O)CCc1cn(CCC23CC4CC(CC(C4)C2)C3)nn1`, 5%. As to `Nc1ccc(-c2ccsc2)cc1NC(=O)c1cn(CCc2cccc(C(F)(F)F)c2)nn1`, the inhibition was found to be 0%.

Consider `Nc1ccc(-c2ccccc2)cc1NC(=O)CCc1cn(-c2ccc(O)cc2)nn1`, for which the inhibition amounted to 3%. For `Cc1csc(CCn2cc(C(=O)Nc3cc(-c4cccs4)ccc3N)nn2)n1` the value was 15%; for `Nc1ccc(-c2ccc(F)cc2)cc1NC(=O)c1cn(Cc2cccc(C(=O)O)c2)nn1`, 0%; for `Nc1ccc(-c2cccs2)cc1NC(=O)CCc1cn(CCC2CCCC2)nn1`, 0%. Consider `Cc1ccccc1CCn1cc(CCC(=O)Nc2cc(-c3cccnc3)ccc2N)nn1`, for which the inhibition worked out at 0%. To `Nc1ccc(-n2cc(CCC(=O)Nc3cc(-c4ccc(F)cc4)ccc3N)nn2)cc1` belongs 21%; to `Nc1ccc(-c2ccsc2)cc1NC(=O)c1cn(CC23CC4CC(CC(C4)C2)C3)nn1`, 0%. For `Cc1ccc(-n2cc(CCC(=O)Nc3cc(-c4ccc(F)cc4)ccc3N)nn2)cc1C` the value was 0%.

On to `Nc1ccc(-c2ccc(F)cc2)cc1NC(=O)c1cn(CCc2cccc(C(F)(F)F)c2)nn1`, for which the inhibition was found to be 0%. Turning to `Nc1ccc(-c2cccs2)cc1NC(=O)c1ccc(-c2cn(CCc3ccccc3Cl)nn2)cc1`, the inhibition stood at 5%. For `Nc1ccc(-c2ccsc2)cc1NC(=O)CCc1cn(CCC23CC4CC(CC(C4)C2)C3)nn1` the value was 0%; for `Nc1ccc(-c2ccsc2)cc1NC(=O)CCc1cn(CCc2ccccc2C(F)(F)F)nn1`, 0%; for `Cc1csc(CCn2cc(-c3ccc(C(=O)Nc4cc(-c5cccs5)ccc4N)cc3)nn2)n1`, 68%. Turning to `Nc1ccc(-c2cccnc2)cc1NC(=O)CCc1cn(CCc2cccc(Cl)c2)nn1`, the inhibition worked out at 30%.

For the compound `Nc1ccc(-c2cccnc2)cc1NC(=O)CCc1cn(Cc2cccc(C(=O)O)c2)nn1`, the inhibition was found to be 0%. For `Nc1ccc(-n2cc(-c3ccc(C(=O)Nc4cc(-c5cccs5)ccc4N)s3)nn2)cc1` the value was 44%; for `Nc1ccc(-c2cccs2)cc1NC(=O)CCc1cn(CCc2cccc(C(F)(F)F)c2)nn1`, 3%. As for `Nc1ccc(-c2cccs2)cc1NC(=O)c1cccc(-c2cn(CCc3ccc(F)cc3)nn2)c1`, the inhibition was determined as 0%.

In the case of `COc1ccccc1CCn1cc(-c2ccc(C(=O)Nc3cc(-c4cccs4)ccc3N)s2)nn1`, the inhibition was determined as 20%. For `Nc1ccc(-c2ccccc2)cc1NC(=O)CCc1cn(CCCc2ccccc2)nn1` the value was 9%; for `Nc1ccc(-c2cccs2)cc1NC(=O)c1ccc(-c2cn(CC34CC5CC(CC(C5)C3)C4)nn2)cc1`, 0%; for `Nc1ccc(-c2ccsc2)cc1NC(=O)CCc1cn(Cc2ccc(C(=O)O)cc2)nn1`, 31%.

As for `Nc1ccc(-c2ccccc2)cc1NC(=O)c1cn(CCc2cccc(Cl)c2)nn1`, the inhibition was 0%. For `Nc1ccc(-c2ccccc2)cc1NC(=O)CCc1cn(CCC23CC4CC(CC(C4)C2)C3)nn1` the value was 0%; for `Nc1ccc(-c2cccs2)cc1NC(=O)CCc1cn(CCCCCc2ccccc2)nn1`, 7%. For `Nc1ccc(-c2ccsc2)cc1NC(=O)CCc1cn(CCN2CCOCC2)nn1` the value was 0%. For `Cc1ccc(-n2cc(C(=O)Nc3cc(-c4ccsc4)ccc3N)nn2)cc1C` the value was 0%; for `Cc1ccc(CCn2cc(-c3cccc(C(=O)Nc4cc(-c5cccs5)ccc4N)c3)nn2)cc1`, 4%.

Regarding `Nc1ccc(-c2cccs2)cc1NC(=O)CCc1cn(Cc2cccc3ccccc23)nn1`, the inhibition stood at 9%. For `Nc1ccc(-n2cc(CCC(=O)Nc3cc(-c4ccsc4)ccc3N)nn2)cc1` the value was 24%; for `Nc1ccc(-n2cc(-c3cccc(C(=O)Nc4cc(-c5cccs5)ccc4N)c3)nn2)cc1`, 30%. To `Nc1ccc(-c2cccs2)cc1NC(=O)c1cn(Cc2ccc(Oc3ccccc3)cc2)nn1` belongs 0%; to `Nc1ccc(-c2ccsc2)cc1NC(=O)c1cn(CCc2ccccc2)nn1`, 17%. For `Nc1ccc(-c2ccccc2)cc1NC(=O)c1cn(CCC2CCCC2)nn1` the value was 0%; for `Nc1ccc(-c2ccccc2)cc1NC(=O)CCc1cn(CCc2cccc([N+](=O)[O-])c2)nn1`, 30%; for `Nc1ccc(-c2cccs2)cc1NC(=O)c1cccc(-c2cn(Cc3cccc(C(=O)O)c3)nn2)c1`, 17%. `Cc1cccc(CCn2cc(-c3ccc(C(=O)Nc4cc(-c5cccs5)ccc4N)s3)nn2)c1`: the inhibition turned out to be 20%. For `COc1ccc(-n2cc(-c3ccc(C(=O)Nc4cc(-c5cccs5)ccc4N)s3)nn2)cc1` the value was 5%. On to `Nc1ccc(-c2ccc(F)cc2)cc1NC(=O)CCc1cn(CCC2CCCCC2)nn1`, for which the inhibition was 2%. To `Nc1ccc(-c2ccccc2)cc1NC(=O)CCc1cn(Cc2ccc(C(=O)O)cc2)nn1` belongs 27%; to `Nc1ccc(-c2cccs2)cc1NC(=O)c1cn(-c2cccc3ccccc23)nn1`, 0%; to `Nc1ccc(-c2cccs2)cc1NC(=O)c1ccc(-c2cn(CCc3cccc(F)c3)nn2)s1`, 24%. To `Nc1ccc(-c2cccs2)cc1NC(=O)c1ccc(-c2cn(CCc3ccc(C(F)(F)F)cc3)nn2)s1` belongs 0%.

Take `Nc1ccc(-c2ccsc2)cc1NC(=O)c1cn(Cc2cccc(-c3ccccc3)c2)nn1`: the inhibition was found to be 0%. For `Nc1ccc(-c2cccs2)cc1NC(=O)CCc1cn(Cc2ccc3ccccc3c2)nn1` the value was 30%. To `Nc1ccc(-c2ccc(F)cc2)cc1NC(=O)c1cn(CCCc2ccccc2)nn1` belongs 21%; to `Nc1ccc(-c2ccc(F)cc2)cc1NC(=O)CCc1cn(CCc2ccccn2)nn1`, 18%; to `Nc1ccc(-c2ccccc2)cc1NC(=O)c1cn(CCc2ccc([N+](=O)[O-])cc2)nn1`, 0%. To `Nc1ccc(-c2ccccc2)cc1NC(=O)c1cn(CCC23CC4CC(CC(C4)C2)C3)nn1` belongs 0%; to `Nc1ccc(-c2cccs2)cc1NC(=O)c1ccc(-c2cn(-c3ccc(I)cc3)nn2)cc1`, 0%. Turning to `Nc1ccc(-c2cccs2)cc1NC(=O)c1ccc(-c2cn(-c3ccc(O)cc3)nn2)cc1`, the inhibition worked out at 16%.

`Nc1ccc(-c2cccs2)cc1NC(=O)c1ccc(-c2cn(Cc3ccc4ccccc4c3)nn2)cc1`: the inhibition came out at 12%.

Regarding `Nc1ccc(-c2ccsc2)cc1NC(=O)c1cn(CCc2ccc([N+](=O)[O-])cc2)nn1`, the inhibition is 0%. Consider `Nc1ccc(-c2cccnc2)cc1NC(=O)CCc1cn(CCc2ccccc2C(F)(F)F)nn1`, for which the inhibition amounted to 0%. To `Nc1ccc(-c2ccccc2)cc1NC(=O)CCc1cn(CCc2c[nH]c3ccccc23)nn1` belongs 20%; to `Nc1ccc(-c2cccs2)cc1NC(=O)c1ccc(-c2cn(CCC34CC5CC(CC(C5)C3)C4)nn2)cc1`, 5%. To `Nc1ccc(-c2cccnc2)cc1NC(=O)CCc1cn(CCCc2ccccc2)nn1` belongs 15%.

For `Nc1ccc(-c2cccs2)cc1NC(=O)c1ccc(-c2cn(CCc3cccc(Cl)c3)nn2)cc1`, the inhibition worked out at 22%. For `COc1ccc(-n2cc(CCC(=O)Nc3cc(-c4ccsc4)ccc3N)nn2)cc1` the value was 12%; for `Nc1ccc(-c2ccccc2)cc1NC(=O)CCc1cn(CCc2ccccn2)nn1`, 0%; for `Nc1ccc(-c2cccnc2)cc1NC(=O)CCc1cn(/C=C/c2ccccc2)nn1`, 7%.

Take `Nc1ccc(-c2cccs2)cc1NC(=O)CCc1cn(CCc2ccccc2)nn1`: the inhibition was found to be 26%. For `Nc1ccc(-c2ccsc2)cc1NC(=O)CCc1cn(CCc2ccccc2[N+](=O)[O-])nn1` the value was 23%; for `COc1ccc(CCn2cc(C(=O)Nc3cc(-c4ccsc4)ccc3N)nn2)cc1`, 6%.

The record behind these values is ChEMBL document CHEMBL5390237, “Discovery of Selective Histone Deacetylase 1 and 2 Inhibitors: Screening of a Focused Library Constructed by Click Chemistry, Kinetic Binding Analysis, and Biological Evaluation” (J Med Chem, 2023).
